Data reported in PMC4522399 (Journal of pharmaceutical sciences, 2015).

Legend:
in vivo = conditions: male, Balb/c, mouse, iv, 0.08 mmol/kg
human NTCP = target: T1, human NTCP (Homo sapiens, UniProt Q14973); conditions: native substrate, comparison value; cited from earlier work
T1 sequence (Q14973 1-349): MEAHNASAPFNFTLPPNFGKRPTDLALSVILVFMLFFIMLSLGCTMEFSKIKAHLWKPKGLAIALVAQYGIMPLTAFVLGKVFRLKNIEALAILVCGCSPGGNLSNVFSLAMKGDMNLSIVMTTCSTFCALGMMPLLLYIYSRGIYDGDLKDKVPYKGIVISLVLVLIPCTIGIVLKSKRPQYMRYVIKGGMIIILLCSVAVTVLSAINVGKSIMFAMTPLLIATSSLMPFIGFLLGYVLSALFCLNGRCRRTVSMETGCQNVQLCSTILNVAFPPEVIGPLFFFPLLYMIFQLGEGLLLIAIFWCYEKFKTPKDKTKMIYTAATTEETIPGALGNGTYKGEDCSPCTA

Tmax (in vivo) [min] | SMILES | Kt (human NTCP) [µM]
30 | NC(=O)c1ncn([C@@H]2O[C@H](CO)[C@@H](O)[C@H]2O)n1 [ribavirin, Ribavirin] | 
 | C[C@H](CCC(=O)NCCS(=O)(=O)O)[C@H]1CC[C@H]2[C@@H]3[C@H](O)C[C@@H]4C[C@H](O)CC[C@]4(C)[C@H]3C[C@H](O)[C@]12C [taurocholate] | 22.7
